Literature values in paper PMC13112601 (International journal of biological macromolecules, 2026).
pEC50: −log10 of the molar value.

Columns and labels:
ERRα = target: T1, ERRα (Homo sapiens, UniProt P11474); conditions: previously reported
T1 construct: Full-length ERRα (A) and ERRγ (B) transfection assay results in HEK293 cells; host or cells: HEK293
T1 sequence (P11474 1-423): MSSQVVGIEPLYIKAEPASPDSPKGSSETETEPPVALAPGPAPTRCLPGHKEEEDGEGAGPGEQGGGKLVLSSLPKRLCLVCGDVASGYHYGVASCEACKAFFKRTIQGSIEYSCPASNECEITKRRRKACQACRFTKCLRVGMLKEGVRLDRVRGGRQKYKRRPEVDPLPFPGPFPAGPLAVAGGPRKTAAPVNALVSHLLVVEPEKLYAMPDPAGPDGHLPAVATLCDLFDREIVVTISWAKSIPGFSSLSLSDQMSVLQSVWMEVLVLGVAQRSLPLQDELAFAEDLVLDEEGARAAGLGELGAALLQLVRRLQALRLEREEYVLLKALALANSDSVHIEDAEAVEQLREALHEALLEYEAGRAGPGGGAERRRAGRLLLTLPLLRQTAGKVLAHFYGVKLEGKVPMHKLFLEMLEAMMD

ERRγ = target: T2, ERRγ (Homo sapiens, UniProt P62508); conditions: previously reported
T2 construct: Full-length ERRα (A) and ERRγ (B) transfection assay results in HEK293 cells; host or cells: HEK293
T2 sequence (P62508 1-458): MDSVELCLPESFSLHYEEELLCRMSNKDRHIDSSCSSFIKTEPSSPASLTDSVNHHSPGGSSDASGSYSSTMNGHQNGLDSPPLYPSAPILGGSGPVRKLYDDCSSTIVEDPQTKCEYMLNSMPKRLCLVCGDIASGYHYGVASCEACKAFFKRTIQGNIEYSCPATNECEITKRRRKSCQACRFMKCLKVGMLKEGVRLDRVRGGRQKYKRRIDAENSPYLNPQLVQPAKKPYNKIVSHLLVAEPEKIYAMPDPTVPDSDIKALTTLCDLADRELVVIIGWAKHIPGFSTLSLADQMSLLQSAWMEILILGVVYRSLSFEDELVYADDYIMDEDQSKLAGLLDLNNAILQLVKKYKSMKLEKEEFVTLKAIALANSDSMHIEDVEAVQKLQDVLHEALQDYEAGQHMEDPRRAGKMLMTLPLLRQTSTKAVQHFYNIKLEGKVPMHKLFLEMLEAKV

## Cc1ccc(C(=O)N/N=C/c2ccccc2)cc1 [BE5082, (E)-N′-Benzylidene-4-methylbenzohydrazide]
ERRα
  pEC50: 6.68
ERRγ
  pEC50: 6.71
